Consider 26 molecules from Sander's compilation of Henry's law constants (doi:10.1021/ac00070a008).

The nature of this series: Henry solubility constant Hcp at 298.15 K (mol/(m3 Pa)). To be noted: reference: Li et al. (1993).

Take `CC(Cl)(Cl)Cl` [1,1,1-trichloroethane]: the “Henry solubility constant Hcp” value amounted to 0.00057.
In the case of `Cc1ccccc1C` [1,2-dimethylbenzene], the “Henry solubility constant Hcp” value was determined as 0.0021.
Consider `Cc1cc(C)cc(C)c1` [1,3,5-trimethylbenzene], for which the “Henry solubility constant Hcp” value stood at 0.0014.
Turning to `Cc1cccc(C)c1` [1,3-dimethylbenzene], the “Henry solubility constant Hcp” value amounted to 0.0015.
As to `Cc1ccc(C)cc1` [1,4-dimethylbenzene], the “Henry solubility constant Hcp” value turned out to be 0.0014.
To `CCCBr` [1-bromopropane] belongs 0.0011; to `CCCCCl` [1-chlorobutane], 0.00053.
Under `CCCCCCCl` [1-chlorohexane] stands 0.00031; under `CCCCCCl` [1-chloropentane], 0.00042; under `CCCI` [1-iodopropane], 0.0011.
As for `CCC(C)Br` (stereo unspecified) [2-bromobutane], the “Henry solubility constant Hcp” value came out at 0.00077.
On to `CC(C)Br` [2-bromopropane], for which the “Henry solubility constant Hcp” value was found to be 0.00084.
Regarding `CC(C)Cl` [2-chloropropane], the “Henry solubility constant Hcp” value amounted to 0.00054.
Under `CC(C)c1ccccc1` [(2-propyl)-benzene] stands 0.00089.
To `c1ccccc1` [benzene] belongs 0.0018; to `CCBr` [bromoethane], 0.0013; to `CCCCc1ccccc1` [butylbenzene], 0.00067.
Turning to `ClCCl` [dichloromethane], the “Henry solubility constant Hcp” value worked out at 0.0038.
As to `CC(C)OC(C)C` [diisopropyl ether], the “Henry solubility constant Hcp” value came to 0.0044.
As for `CCCOCCC` [dipropyl ether], the “Henry solubility constant Hcp” value was determined as 0.0029.
With `CCc1ccccc1` [ethylbenzene], the “Henry solubility constant Hcp” value is 0.0013.
Regarding `CCI` [iodoethane], the “Henry solubility constant Hcp” value stood at 0.0014.
For `Cc1ccccc1` [methylbenzene], the “Henry solubility constant Hcp” value amounted to 0.0016.
Consider `CCCc1ccccc1` [propylbenzene], for which the “Henry solubility constant Hcp” value stood at 0.00091.
Regarding `ClC(Cl)=C(Cl)Cl` [tetrachloroethene], the “Henry solubility constant Hcp” value turned out to be 0.00063.
For `ClC=C(Cl)Cl` [trichloroethene], the “Henry solubility constant Hcp” value stood at 0.001.
